For orientation: half-life means how long it takes for the measured level to halve. Low values mean rapid decline, high ones slow decline. For orientation: hepatocyte CLint means the capacity of the preparation to metabolise the compound, expressed as a volume cleared per time. As usually defined, the IC50 is the concentration that inhibits the measured activity by half. The term MIC denotes the least concentration at which growth counts as inhibited.

The nature of data set [1]: in vitro. To be noted: mouse. As for the experimental part:
The assay was performed in cryopreserved mouse hepatocytes. First, the vials were thawed, the suspension added to “thawing media” and centrifuged to pellet the hepatocytes. The cell pellet was resuspended in Williams medium E (Invitrogen A1217601). […] A mixture of midazolam, diclofenac, and bufuralol at 1 μM was used as a positive control. The incubation was carried out on a heater-shaker at 37 °C, in a 24-well Picoplate (round bottom, PerkinElmer), with total incubation volume of 700 μL. […] The plate was incubated at 37 °C for 60 s. A zero sample was taken by removing 100 μL to a 96-well plate, and the reaction was quenched by adding 100 μL of acetonitrile with 50 nM warfarin as the internal standard. […] The LC–MS/MS method was the same as described above in Chapter LogD Determination.

For data set [2], the target named is A. baumannii DNA gyrase (Acinetobacter baumannii, UniProt A0ABX6CA01). In words: gel-based supercoiling assay. The class given is biochemical.
Procedure: In all experiments, the activity of the
(§7) enzymes was determined prior to the testing of the compound and 1 unit (U) was defined as the
(§8) amount of enzyme required to just fully supercoil or decatenate the substrate. This amount of
(§9) enzyme was initially used in determination of control inhibitor activity. These experiments were
(§10) performed in duplicate. […] The final DMSO
(§11) concentration was 1% for all assays. All measurements were performed in quadruplicates. The
(§12) condition for each reaction were as follows:
− S. aureus gyrase supercoiling assay
(§13) 1 U of S. aureus gyrase was incubated with 0.5 µg of relaxed pBR322 DNA in a 30 µL reaction at
(§14) magnesium acetate, 10 mM DTT, 2 mM ATP, 500 mM potassium glutamate and 0.05 mg/mL
− S. aureus topo IV decatenation assay
(§15) 1 U of S. aureus topo IV was incubated with 20 µg kDNA in a 30 µL reaction at 37 °C for 30
(§16) mM ATP, 350 mM potassium glutamate and 0.05 mg/mL albumin.
(§17) − A. baumannii gyrase supercoiling assay
(§18) 1 U of A. baumannii gyrase was incubated with 0.5 µg of relaxed pBR322 DNA in a 30 µL reaction
(§19) blue), before being loaded on a 1.0% TAE gel run at 80V for 2 hours. Bands were visualised by
(§20) ethidium bromide staining for 20 minutes and destaining for 20 minutes. Gels were scanned using
(§21) documentation equipment (GeneGenius, Syngene, Cambridge, UK) and % inhibition levels were
(§22) measured by determining the relative fluorescence of the supercoiled band using gel scanning
software. […]
A short description of data set [3]: in vitro. To be noted: pH 7.4; for Clint (pred. in vivo) / half-life at 1 h, 1 µM: microsomes. How it is done: Liver microsomal fractions were purchased from XenoTech LLC, (KS, USA). […] To initiate the reaction, 1 mM NADPH was added. Samples were taken at 0, 5, 10, 20, 40, and 60 min. To terminate the reaction, cold acetonitrile with warfarin as an internal standard was added. LC–MS/MS was used to analyze the samples and determine the amount of remaining parent compound. The LC–MS/MS method was the same as described above in Chapter LogD Determination.

The nature of data set [4]: thermodynamic solubility in phosphate buffer, LC-MS/MS. Conditions: 100 mM phosphate buffer pH 7.4, 24 h, 37 °C.
Procedure: 0.5 mL of 67 mM phosphate
in a rotational shaker (400 rpm) at 23 °C. After the incubation an aliquot of 200 µL was
1 µL of the supernatant was transferred to 96-well plate in triplicate wells, diluted 100×
with acetonitrile/H2O (60/40) containing 50 nM warfarin as internal standard and analyzed
performed comparing to a separately constructed standard series (10 nM to 1000 nM).
shaker (900 rpm) at 37 °C. After the incubation an aliquot of 200 µL was transferred to a
conical glass insert and centrifuged for 30 min at 10 000 × g at 37 °C. The supernatant was
transferred to a new HPLC vial appropriately diluted (100×, 1000×, 5000×) with
acetonitrile/H2O (50/50) containing 50 nM warfarin as internal standard and analyzed by
performed comparing to a separately constructed standard curve between 3 nM to 20000
Data set [5] concerns the target S. aureus topo IV (Staphylococcus aureus, UniProt P0C1S7).
Procedure: In all experiments, the activity of the
as §7, §8, §9, §10, §11, §12
− S. aureus gyrase supercoiling assay
as §13, §14
− S. aureus topo IV decatenation assay
as §15, §16, §17, §18, §19, §20, §21, §22
software. […]
Data set [6] deals with E. coli ATCC 25922, CH3130 ΔtolC, CGSC 5163 D22. The data set is described as follows: MIC, wild-type vs efflux-defective and lps mutant. Type of data set: cell-based. Conditions: Escherichia coli.
The test system of data set [7] is K. pneumoniae ATCC 13883. In words: MIC broth microdilution (CLSI). Type of data set: cell-based. To be noted: Klebsiella pneumoniae, ATCC13883; ATCC 13883 used for 7l, 8b, 14, 16b, 16c. How it is done:
(§1) MICs (Tables 1 and S1–S3) were determined with a standard serial broth microdilution technique according to Clinical and Laboratory Standards Institute (CLSI) guidelines.[45] Cation-adjusted Mueller Hinton broth 2 (MHBII) was used for bacterial growth under standard laboratory conditions and for antimicrobial susceptibility tests. MHBII broth was prepared by dissolving 22 g of MHBII powder [containing beef extract (3 g), acid hydrolysate of casein (17.5 g), and starch (1.5 g); Becton Dickinson and Co.] in 1 L of water. To prepare MHBII agar, 14 g of agar (Bacto; Molar Chemicals) was added to 1 L of broth.
(§2) Bacterial strains were inoculated onto MHBII agar plates and grown overnight at 37 °C. Next, three individual colonies from each strain were inoculated into 1 mL of MHBII medium and propagated at 37 °C overnight, with agitation at 250 rpm. For Enterococcus sp., the cells were plated in brain–heart infusion [(BHI) medium] agar plates, and BHI broth was used to determine the MICs. […] The highest final DMSO concentration in the experiments was 0.64% (in the case of the 64 μg/mL concentration of the inhibitor). Following the dilutions, each well was seeded with 5 × 10^4 bacterial cells (in 100 μL final volume). Each measurement was performed in three parallel replicates, and to avoid possible edge effects in the microwell plates, the outside rows (A, H) were filled with sterile medium. Following the inoculations, the plates were covered with the lids and wrapped in polyethylene plastic bags, to minimize evaporation but to allow O2 transfer. The plates were incubated at 37 °C under continuous shaking at 150 rpm for 18 h. After incubation, the OD600 of each well was measured using a microplate reader (Synergy 2; Biotek). The MICs were defined as the antibiotic concentrations which inhibited the growth of the bacterial cultures; that is, the drug concentration where the average OD600 increment of the three technical replicates was below 1.5-fold the background OD increment.
(§3) cMIC, minimum inhibitory concentration
(§4) Bacterial strains that were used: S. aureus ATCC 29213, S. aureus (MRSA) ATCC 43300, S. aureus (VISA) ATCC 700699, E. faecalis ATCC 29212, E. faecium ATCC 700221,
(§5) E. coli ATCC 25922, P. aeruginosa ATCC 27853 (PAO1 for compounds 7l, 8b, 14), A. baumannii ATCC 17978 (ATCC 19606 for compounds 7l, 8b, 14), K. pneumoniae ATCC
(§6) Measurements were performed according to the Clinical and Laboratory Standards Institute guidelines, with three independent measurements.
In general terms: Broth dilution looks for growth in wells or tubes with falling amounts of substance.

Data set [8] relates to P. aeruginosa PAO1. In words: MIC broth microdilution (CLSI). To be noted: Pseudomonas aeruginosa; PAO1 used for 7l, 8b, 14, 16b, 16c. Type of data set: cell-based. How it is done:
as §1, §2, §3, §4, §5, §6

Data set [9] concerns A. baumannii ATCC 19606. In words: MIC broth microdilution (CLSI). To be noted: Acinetobacter baumannii, ATCC19606; ATCC 19606 used for 7l, 8b, 14, 16b, 16c; read-out: MIC. The class given is cell-based. How it is done:
as §1, §2, §3, §4, §5, §6

Values after ≈ are worked out from the molar mass of the structure shown.

Chain of S. aureus topo IV (P0C1S7 whole entry): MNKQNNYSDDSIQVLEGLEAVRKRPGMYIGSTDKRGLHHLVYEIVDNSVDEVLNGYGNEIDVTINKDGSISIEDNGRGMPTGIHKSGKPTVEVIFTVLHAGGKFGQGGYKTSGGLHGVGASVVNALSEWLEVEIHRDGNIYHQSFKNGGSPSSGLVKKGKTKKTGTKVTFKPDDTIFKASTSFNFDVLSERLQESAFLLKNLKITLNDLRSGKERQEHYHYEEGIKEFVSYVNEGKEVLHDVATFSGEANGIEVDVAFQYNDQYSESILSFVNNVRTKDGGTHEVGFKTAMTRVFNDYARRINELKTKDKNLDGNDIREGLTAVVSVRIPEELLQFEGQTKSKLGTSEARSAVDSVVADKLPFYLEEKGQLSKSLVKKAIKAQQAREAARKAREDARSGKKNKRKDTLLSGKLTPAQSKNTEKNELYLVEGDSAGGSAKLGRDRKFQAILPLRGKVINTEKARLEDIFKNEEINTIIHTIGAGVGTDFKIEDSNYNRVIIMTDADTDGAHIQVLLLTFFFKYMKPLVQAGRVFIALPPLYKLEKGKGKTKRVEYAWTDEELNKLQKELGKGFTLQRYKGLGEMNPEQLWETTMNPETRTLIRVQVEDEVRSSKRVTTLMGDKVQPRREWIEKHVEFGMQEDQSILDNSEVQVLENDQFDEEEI
Chain of S. aureus topo IV (P0C1U9 whole entry, further chain): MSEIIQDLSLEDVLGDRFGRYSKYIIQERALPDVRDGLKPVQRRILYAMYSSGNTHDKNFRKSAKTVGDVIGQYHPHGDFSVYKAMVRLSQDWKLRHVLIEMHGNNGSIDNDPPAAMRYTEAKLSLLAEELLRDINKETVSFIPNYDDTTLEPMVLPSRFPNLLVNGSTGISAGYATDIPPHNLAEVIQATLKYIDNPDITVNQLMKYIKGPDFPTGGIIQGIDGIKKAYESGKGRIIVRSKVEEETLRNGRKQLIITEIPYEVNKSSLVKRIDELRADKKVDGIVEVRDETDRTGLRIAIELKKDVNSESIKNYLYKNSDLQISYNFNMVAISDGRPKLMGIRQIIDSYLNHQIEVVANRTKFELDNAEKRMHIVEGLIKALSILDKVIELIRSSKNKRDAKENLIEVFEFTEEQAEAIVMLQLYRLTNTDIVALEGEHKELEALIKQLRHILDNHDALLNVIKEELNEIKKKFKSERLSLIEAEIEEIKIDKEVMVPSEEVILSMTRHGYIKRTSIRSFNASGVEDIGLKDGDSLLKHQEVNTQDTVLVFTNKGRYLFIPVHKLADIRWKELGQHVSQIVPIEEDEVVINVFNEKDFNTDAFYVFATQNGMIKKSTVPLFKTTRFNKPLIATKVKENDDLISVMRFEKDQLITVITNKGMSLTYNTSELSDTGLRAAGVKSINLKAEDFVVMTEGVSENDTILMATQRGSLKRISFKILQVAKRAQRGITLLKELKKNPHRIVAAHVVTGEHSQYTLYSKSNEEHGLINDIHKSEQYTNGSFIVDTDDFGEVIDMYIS
Chain of A. baumannii DNA gyrase (A0ABX6CA01 1-822): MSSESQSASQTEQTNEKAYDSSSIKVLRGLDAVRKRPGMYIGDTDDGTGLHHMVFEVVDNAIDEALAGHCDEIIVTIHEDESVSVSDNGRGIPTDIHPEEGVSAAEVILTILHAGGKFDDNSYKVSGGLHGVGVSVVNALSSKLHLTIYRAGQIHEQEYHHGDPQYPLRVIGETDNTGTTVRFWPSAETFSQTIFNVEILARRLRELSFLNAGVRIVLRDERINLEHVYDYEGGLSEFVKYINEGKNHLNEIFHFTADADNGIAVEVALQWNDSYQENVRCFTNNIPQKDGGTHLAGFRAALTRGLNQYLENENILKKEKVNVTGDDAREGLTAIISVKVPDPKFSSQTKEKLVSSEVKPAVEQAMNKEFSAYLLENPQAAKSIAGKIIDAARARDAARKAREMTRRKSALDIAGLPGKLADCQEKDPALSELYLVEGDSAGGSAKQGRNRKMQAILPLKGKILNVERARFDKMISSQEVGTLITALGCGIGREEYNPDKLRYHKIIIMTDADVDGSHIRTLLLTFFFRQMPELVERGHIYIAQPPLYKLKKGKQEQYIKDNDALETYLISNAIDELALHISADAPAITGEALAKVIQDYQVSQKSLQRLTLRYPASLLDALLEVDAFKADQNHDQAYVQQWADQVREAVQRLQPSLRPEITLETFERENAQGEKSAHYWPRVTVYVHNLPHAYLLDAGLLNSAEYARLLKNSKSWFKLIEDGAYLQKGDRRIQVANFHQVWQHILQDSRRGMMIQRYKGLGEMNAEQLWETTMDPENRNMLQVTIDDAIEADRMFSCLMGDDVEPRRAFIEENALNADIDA
Chain of A. baumannii DNA gyrase (A0ABX6CII0 1-904 partner): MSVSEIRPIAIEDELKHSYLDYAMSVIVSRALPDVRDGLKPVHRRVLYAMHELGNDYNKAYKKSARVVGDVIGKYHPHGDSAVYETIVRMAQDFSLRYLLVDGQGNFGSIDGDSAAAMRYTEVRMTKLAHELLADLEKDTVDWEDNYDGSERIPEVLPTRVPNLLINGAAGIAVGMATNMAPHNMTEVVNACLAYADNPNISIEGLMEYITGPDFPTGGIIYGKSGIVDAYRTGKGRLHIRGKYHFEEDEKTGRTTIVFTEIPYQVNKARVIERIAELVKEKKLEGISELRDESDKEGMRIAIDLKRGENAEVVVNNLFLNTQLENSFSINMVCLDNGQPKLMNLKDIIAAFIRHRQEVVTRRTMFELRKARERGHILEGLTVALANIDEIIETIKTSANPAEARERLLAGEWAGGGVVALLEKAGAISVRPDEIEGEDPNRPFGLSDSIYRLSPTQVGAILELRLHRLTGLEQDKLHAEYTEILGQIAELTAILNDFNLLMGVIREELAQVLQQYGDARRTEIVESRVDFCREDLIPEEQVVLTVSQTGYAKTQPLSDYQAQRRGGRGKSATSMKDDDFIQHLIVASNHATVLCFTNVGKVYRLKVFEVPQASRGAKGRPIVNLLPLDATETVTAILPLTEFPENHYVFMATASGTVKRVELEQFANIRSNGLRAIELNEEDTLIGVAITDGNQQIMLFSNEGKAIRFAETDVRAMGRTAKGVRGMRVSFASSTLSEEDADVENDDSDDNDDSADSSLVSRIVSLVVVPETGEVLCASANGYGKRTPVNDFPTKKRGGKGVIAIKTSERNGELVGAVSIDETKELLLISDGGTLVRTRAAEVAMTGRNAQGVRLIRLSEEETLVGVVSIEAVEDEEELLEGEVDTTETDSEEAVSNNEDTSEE

Take `Cc1[nH]c(C(=O)Nc2nc3c(N4CCOCC4)cc(C(=O)O)cc3s2)c(Cl)c1Cl` [7a, 2-(3,4-Dichloro-5-methyl-1H-pyrrole-2-carboxamido)-4-morpholinobenzo[d]thiazole-6-carboxylic Acid]: the “ClH (pred.)” value in [1] turned out to be 0.05 mL/min; in data set [3] (human), 14 mL/min; in [3] (mouse), 0.03 mL/min. Further, the “Clint (pred. in vivo)” value in data set [1] (hepatocytes) worked out at 2.1 mL/min; in [3] (human), 630 mL/min; in [3] (mouse) it was 1.3 mL/min. For the same compound, the half-life at 1.5 h, 1 µM in data set [1] (hepatocytes) came to 2.67 h. For the same compound, the hepatocyte CLint at 1.5 h, 1 µM in data set [1] (hepatocytes) is 9 µL/min/1e6 cells. Besides, the IC50 in [2] amounted to 2.42 ± 0.28 nM; in data set [5] it was 8 ± 1.2 nM. The half-life at 1 h, 1 µM turned out to be 1.72 h in data set [3] (human) and 1.45 h in data set [3] (mouse). For the same compound, the Epred in data set [3] (human) and in data set [3] (mouse) was 0.01 in each case. Besides, the “thermodynamic solubility, second method” value in data set [4] stood at 167.9 µM (≈ 76.4 µg/mL). Besides, the minimum inhibitory concentration (MIC) in data set [6] (ATCC25922, E. coli ATCC 25922) is 8 µg/mL (≈ 17.6 µM); in data set [6] (ATCC25922, E. coli CGSC 5163 D22, lps mutant, hypersensitive), 2 µg/mL (≈ 4.39 µM); in data set [6] (ATCC25922, E. coli CH3130 ΔtolC, efflux-defective) it was under 0.125 µg/mL.
Regarding `Cc1[nH]c(C(=O)Nc2nc3c(N4CCOCC4)cc(C(=O)O)cc3s2)cc1F` [16b, 2-(4-Fluoro-5-methyl-1H-pyrrole-2-carboxamido)-4-morpholinobenzo[d]thiazole-6-carboxylic Acid], the MIC in [7], in [8] and in data set [9] was over 64 µg/mL each time.

The values above are taken from publication PMC10041525, “New Dual Inhibitors of Bacterial Topoisomerases with Broad-Spectrum Antibacterial Activity and In Vivo Efficacy against Vancomycin-Intermediate Staphylococcus aureus” (Journal of Medicinal Chemistry, 2023).
